Test results from ChEMBL document CHEMBL5614396, “Structure-Activity Relationship Studies in Benzothiadiazoles as Novel Vaccine Adjuvants” (J Med Chem, 2024).

What was measured:
BMDC [1] = assay: Vaccine adjuvant activity in Balb/c mouse BMDC assessed as induction of Ca2+ influx at 10 uM by Fura-2/8-AM dye based fluorescence analysis (reference value: 0%); format: functional
THP-1 = assay: Vaccine adjuvant activity in human THP-1 cells expressing CD63-Turbo-luciferase and CD9-Emerald green fluorescent protein reporter assessed as extracellular vesicle release by measuring reporter activation at 10 uM incubated for 48 hrs by TurboLuc luciferase based chemiluminescence assay (reference value: 0%); format: functional
[2] = Cytotoxicity against Balb/c mouse BMDC assessed as cell viability at 10 uM incubated for 20 hrs by MTT assay (reference value: 100 +/-0.6%); format: toxicity, cell-based; settings: BMDC (bone marrow-derived dendritic cells), read-out: Activity
BMDC [3] = assay: Vaccine adjuvant activity in Balb/c mouse BMDC assessed as increase in IL-12 production at 10 uM incubated for 20 hrs by ELISA (reference value: 1.35 +/-0.1 ng/ml); format: functional

Compound	Activity (BMDC [1])	Activity (THP-1)	viability at 20 h, 10 µM [2]	Activity (BMDC [3])
CCOC(=O)c1c(NS(=O)(=O)c2ccc(Br)c3nsnc23)sc(C)c1C	73.6%	70.3%	96.3%	1.9 ng/mL
CCOC(=O)c1c(NS(=O)(=O)c2cccc3nsnc23)sc(-c2ccccn2)c1C	8.1%	30.5%	68.1%	1.01 ng/mL
CCCCCCOC(=O)c1c(NS(=O)(=O)c2cccc3nsnc23)sc(C)c1C	245%	185.3%	106%	3.44 ng/mL
CCOC(=O)c1c(NS(=O)(=O)c2ccc3nsnc3c2)sc(C)c1C	-12.7%	0.2%	93.1%	0.63 ng/mL
Cc1sc(NS(=O)(=O)c2cccc3nsnc23)c(C(=O)OC(C)(C)C)c1C	136.7%	128.8%	118%	3.17 ng/mL
CCOC(=O)c1c(NS(=O)(=O)c2ccc(Br)c3ccncc23)sc(C)c1C	-9.4%	16.1%	82.7%	1.12 ng/mL
CCOC(=O)c1c(NS(=O)(=O)c2cccc3nn[nH]c23)sc(C)c1C	-9.6%	-0.7%	102%	2.11 ng/mL
CCOC(=O)c1c(NS(=O)(=O)c2cccc3c2NCCN3)sc(C)c1C	2%	2.7%	89.3%	1.06 ng/mL
CCOC(=O)c1c(C)csc1NS(=O)(=O)c1cccc2nsnc12	76.7%	99%	100%	1.12 ng/mL
CCOC(=O)c1c(C)cccc1NS(=O)(=O)c1cccc2nsnc12	-14.2%	1%	88.8%	1.14 ng/mL
CCOC(=O)c1c(NS(=O)(=O)c2cccc3nc(O)[nH]c23)sc(C)c1C	-14.3%	0.4%	88.1%	0.59 ng/mL
CCOC(=O)c1c(N(C)S(=O)(=O)c2cccc3nsnc23)sc(C)c1C	-39.3%	-2%	108%	1.19 ng/mL
CCOC(=O)c1c(NS(=O)(=O)c2cccc3nsnc23)sc2c1CCCC2	102.1%	156.9%	114%	1.83 ng/mL
Cc1sc(NS(=O)(=O)c2cccc3nsnc23)c(C(=O)Oc2ccccc2)c1C	85.3%	39.8%	107%	1.58 ng/mL
Cc1sc(NS(=O)(=O)c2cccc3nsnc23)c(C(=O)O)c1C	-31.3%	-1.3%	105%	1.43 ng/mL
Cc1sc(NS(=O)(=O)c2cccc3nsnc23)c(C(=O)OCc2ccccc2)c1C	175.5%	169.9%	128%	2.74 ng/mL
CCOC(=O)c1c(NS(=O)(=O)c2cccc3nsnc23)sc2c1CCC2	121%	94.9%	127%	1.85 ng/mL
CCOC(=O)c1c(NS(=O)(=O)c2cccc3nsnc23)sc2c1CCN(C(=O)OC(C)(C)C)C2	79.2%	100.4%	104%	2.27 ng/mL
CCOC(=O)c1cc(C)ccc1NS(=O)(=O)c1cccc2nsnc12	-11.5%	10.8%	60.1%	1.22 ng/mL
CCc1noc(-c2c(NS(=O)(=O)c3cccc4nsnc34)sc(C)c2C)n1	-3.1%	0.4%	65.9%	1.71 ng/mL
CCOC(=O)c1c(NS(=O)(=O)c2cccc3nsnc23)sc(-c2cccnc2)c1C	11.8%	75.3%	85.5%	1.05 ng/mL
CCOC(=O)c1c(NS(=O)(=O)c2cccc3nsnc23)sc(-c2ccco2)c1C	134.2%	67.1%	98.7%	2.56 ng/mL
CCOC(=O)c1c(NS(=O)(=O)c2cccc3nonc23)sc(C)c1C	-12.5%	4.7%	105%	1.47 ng/mL
CCOC(=O)c1c(NS(=O)(=O)c2cccc3nsnc23)sc(-c2cccs2)c1C	100.6%	17.9%	77%	1.03 ng/mL
CCOC(=O)c1c(NS(=O)(=O)c2cccc3nsnc23)sc2c1CCNC2	-35.3%	0.1%	94.8%	0.72 ng/mL

Compound	Activity (BMDC [1])	Activity (THP-1)	viability at 20 h, 10 µM [2]	Activity (BMDC [3])
CCOC(=O)c1c(NS(=O)(=O)c2cccc3nc(C)[nH]c23)sc(C)c1C	-13.1%	3.4%	108%	1.42 ng/mL
CCOC(=O)c1c(NS(=O)(=O)c2cccc3nsnc23)sc(Br)c1C	102.9%	81.1%	104%	1.03 ng/mL
CCOC(=O)c1c(NS(=O)(=O)c2cccc(N)c2N)sc(C)c1C	-6.8%	2.4%	107%	1.39 ng/mL
CCOC(=O)c1c(NS(=O)(=O)c2cccc3nsnc23)sc(C)c1CC	117.6%	112%	100%	2.27 ng/mL
CCOC(=O)c1sc(C)c(C)c1NS(=O)(=O)c1cccc2nsnc12	74.2%	154.1%	130%	1.67 ng/mL
CCNC(=O)c1c(NS(=O)(=O)c2cccc3nsnc23)sc(C)c1C	-28.3%	-0.6%	100%	1.7 ng/mL
Cc1sc(NS(=O)(=O)c2cccc3nsnc23)c(C(=O)OCCCCCN)c1C	-2.6%	0.7%	103%	1.43 ng/mL
Cc1cc(NS(=O)(=O)c2cccc3nsnc23)sc1C	-11.4%	-0.9%	113%	1.4 ng/mL
Cc1sc(NS(=O)(=O)c2cccc3nsnc23)c(C(=O)OCCCCCNC(=O)OC(C)(C)C)c1C	103.9%	111.5%	183%	4.14 ng/mL
Cc1sc(NS(=O)(=O)c2cccc3nsnc23)c(C(=O)OC(C)C)c1C	178.4%	149.2%	132%	3 ng/mL
CCCOC(=O)c1c(NS(=O)(=O)c2cccc3nsnc23)sc(C)c1C	147.4%	156.3%	140%	3.5 ng/mL
CCOC(=O)c1c(NS(=O)(=O)c2cccc3ncccc23)sc(C)c1C	-13.3%	0%	117%	1.1 ng/mL
CCOC(=O)c1c(NS(=O)(=O)c2cccc3nsnc23)sc(C)c1-c1ccccc1	69.1%	49.6%	94.2%	1.45 ng/mL
COC(=O)c1c(NS(=O)(=O)c2cccc3nsnc23)sc(C)c1C	83.6%	30.1%	114%	1.75 ng/mL
CCOC(=O)c1cc(C)sc1NS(=O)(=O)c1cccc2nsnc12	78.5%	106.9%	93%	0.81 ng/mL
Cc1sc(NS(=O)(=O)c2cccc3nsnc23)c(C(=O)OCCC(C)C)c1C	262.4%	141.6%	81.2%	2.87 ng/mL
CCOC(=O)c1nc(C)sc1NS(=O)(=O)c1cccc2nsnc12	-7.9%	1.7%	93.3%	0.92 ng/mL
CCOC(=O)c1c(NS(=O)(=O)c2cccc3nsnc23)sc2c1CCN(CC)C2	-10.8%	1.3%	108%	1.84 ng/mL
CCOC(=O)c1ncsc1NS(=O)(=O)c1cccc2nsnc12	-6.4%	1.3%	91.3%	1.04 ng/mL
CCOC(=O)c1ccsc1NS(=O)(=O)c1cccc2nsnc12	58.3%	60.9%	72.5%	0.48 ng/mL
CCOC(=O)c1c(NS(=O)(=O)c2cccc3nsnc23)sc2ccccc12	97%	98.3%	99.1%	1.11 ng/mL
CCOC(=O)c1c(NS(=O)(=O)c2cccc3nc[nH]c23)sc(C)c1C	-14.2%	2%	111%	1.51 ng/mL
CCOC(=O)c1c(NS(=O)(=O)c2cccc3cccnc23)sc(C)c1C	99.7%	60.4%	110%	2 ng/mL
CCOC(=O)c1c(NS(=O)(=O)c2cccc3ccncc23)sc(C)c1C	4.1%	3.6%	87.5%	1.12 ng/mL
